Reference: paper PMC3914206

Columns and labels:
[1] = molecular target: T1, panel of 442 kinases (Homo sapiens, UniProt O95819); format: binding; settings: Compound Concentration 10 µM
T1 construct: purchased KINOMEscan
Text: (§1) We assessed the selectivity of members of this scaffold using the KINOMEscan methodology across a near comprehensive panel of 442 kinases [[18,27]].

[2] = molecular target: T2, panel of 442 kinases (Homo sapiens, UniProt Q9NRP7); format: binding; settings: kinase STK36; compound concentration 10 µM
T2 construct: purchased KINOMEscan
T2 sequence (Q9NRP7 1-1315): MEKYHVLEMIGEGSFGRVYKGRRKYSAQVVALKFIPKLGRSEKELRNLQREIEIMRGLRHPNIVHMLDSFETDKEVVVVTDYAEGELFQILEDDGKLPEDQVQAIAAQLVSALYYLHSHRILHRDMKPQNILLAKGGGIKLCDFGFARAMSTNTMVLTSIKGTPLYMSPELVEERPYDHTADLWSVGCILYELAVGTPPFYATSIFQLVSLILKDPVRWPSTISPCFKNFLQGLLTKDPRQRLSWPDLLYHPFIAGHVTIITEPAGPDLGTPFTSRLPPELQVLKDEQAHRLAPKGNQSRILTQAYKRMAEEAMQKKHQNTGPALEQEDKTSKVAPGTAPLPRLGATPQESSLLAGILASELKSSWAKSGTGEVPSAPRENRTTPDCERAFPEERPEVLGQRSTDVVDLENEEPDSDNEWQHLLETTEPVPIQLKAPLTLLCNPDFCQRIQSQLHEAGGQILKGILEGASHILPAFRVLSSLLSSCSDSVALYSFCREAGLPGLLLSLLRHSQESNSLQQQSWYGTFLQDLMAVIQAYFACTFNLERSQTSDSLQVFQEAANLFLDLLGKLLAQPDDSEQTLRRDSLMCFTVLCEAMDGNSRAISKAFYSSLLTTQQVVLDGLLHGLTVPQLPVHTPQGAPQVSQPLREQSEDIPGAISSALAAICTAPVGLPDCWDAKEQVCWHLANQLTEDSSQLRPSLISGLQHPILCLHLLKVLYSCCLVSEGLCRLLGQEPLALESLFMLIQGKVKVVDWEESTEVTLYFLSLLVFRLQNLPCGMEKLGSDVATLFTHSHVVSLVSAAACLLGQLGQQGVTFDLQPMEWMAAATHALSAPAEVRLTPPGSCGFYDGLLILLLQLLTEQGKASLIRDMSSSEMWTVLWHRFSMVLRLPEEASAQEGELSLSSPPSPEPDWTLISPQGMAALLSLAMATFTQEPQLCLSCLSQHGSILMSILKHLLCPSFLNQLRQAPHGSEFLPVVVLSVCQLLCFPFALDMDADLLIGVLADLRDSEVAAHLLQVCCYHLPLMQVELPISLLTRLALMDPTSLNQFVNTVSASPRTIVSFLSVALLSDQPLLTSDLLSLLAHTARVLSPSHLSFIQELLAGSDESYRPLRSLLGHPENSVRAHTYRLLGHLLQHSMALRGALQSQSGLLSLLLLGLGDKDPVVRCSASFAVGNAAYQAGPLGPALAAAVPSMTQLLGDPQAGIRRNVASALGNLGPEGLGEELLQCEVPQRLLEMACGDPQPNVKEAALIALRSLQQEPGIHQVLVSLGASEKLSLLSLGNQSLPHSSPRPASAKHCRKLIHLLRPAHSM
Text: as §1

T1 sequence (O95819 whole entry): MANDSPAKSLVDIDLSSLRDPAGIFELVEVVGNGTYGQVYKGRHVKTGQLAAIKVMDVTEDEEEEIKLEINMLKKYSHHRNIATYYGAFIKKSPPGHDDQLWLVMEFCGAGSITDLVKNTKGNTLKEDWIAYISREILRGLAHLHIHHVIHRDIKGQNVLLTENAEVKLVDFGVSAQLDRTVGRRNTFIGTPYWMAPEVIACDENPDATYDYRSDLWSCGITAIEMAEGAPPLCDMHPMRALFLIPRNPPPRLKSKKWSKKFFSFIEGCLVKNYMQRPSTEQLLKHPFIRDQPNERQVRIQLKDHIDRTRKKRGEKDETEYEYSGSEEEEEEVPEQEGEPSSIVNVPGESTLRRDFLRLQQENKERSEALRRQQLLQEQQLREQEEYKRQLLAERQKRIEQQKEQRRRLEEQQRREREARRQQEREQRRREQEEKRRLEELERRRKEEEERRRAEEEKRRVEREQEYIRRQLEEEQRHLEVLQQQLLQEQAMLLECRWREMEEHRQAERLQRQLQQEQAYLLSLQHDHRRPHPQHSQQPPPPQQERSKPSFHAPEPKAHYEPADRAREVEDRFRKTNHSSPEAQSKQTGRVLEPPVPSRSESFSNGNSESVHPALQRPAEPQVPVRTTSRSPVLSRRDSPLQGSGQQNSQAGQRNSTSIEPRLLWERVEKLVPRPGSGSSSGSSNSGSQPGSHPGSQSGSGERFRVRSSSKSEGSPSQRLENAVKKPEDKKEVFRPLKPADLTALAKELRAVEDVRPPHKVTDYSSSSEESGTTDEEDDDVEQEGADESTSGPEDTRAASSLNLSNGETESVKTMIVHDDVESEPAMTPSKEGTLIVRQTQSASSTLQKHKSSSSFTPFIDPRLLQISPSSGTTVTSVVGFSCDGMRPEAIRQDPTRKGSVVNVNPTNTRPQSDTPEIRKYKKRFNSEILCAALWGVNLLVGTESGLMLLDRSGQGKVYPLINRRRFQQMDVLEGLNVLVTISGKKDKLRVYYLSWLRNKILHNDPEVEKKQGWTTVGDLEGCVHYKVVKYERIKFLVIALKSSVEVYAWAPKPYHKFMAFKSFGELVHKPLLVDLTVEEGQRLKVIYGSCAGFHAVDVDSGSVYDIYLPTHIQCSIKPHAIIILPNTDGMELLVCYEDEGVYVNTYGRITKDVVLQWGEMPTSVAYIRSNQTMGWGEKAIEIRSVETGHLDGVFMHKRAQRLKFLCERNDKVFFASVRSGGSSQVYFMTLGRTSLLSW

SMILES | KINOMEscan: MAP4K4 [1] | % Ctrl, STK36 [2]
CCOc1cc(C(=O)N2CCC(N3CCN(C)CC3)CC2)ccc1Nc1ncc2c(n1)N(C1CCCC1)c1ccccc1C(=O)N2C [Compound 26] | 96 | 99 % Ctrl
COc1cc(C(=O)N2CCC(N3CCN(C)CC3)CC2)ccc1Nc1ncc2c(n1)N1CCc3cccc(c31)C(=O)N2C [Compound 24] | 35 | 
COc1cc(C(=O)N2CCC(N3CCN(C)CC3)CC2)ccc1Nc1ncc2c(n1)N(C)c1ccccc1C(=O)N2C [15 (LRRK2-IN-1)] | 85 | 97 % Ctrl
COc1cc(C(=O)N2CCC(N3CCN(C)CC3)CC2)ccc1Nc1ncc2c(n1)N(C1CCCC1)c1ccccc1C(=O)N2C [Compound 25, 11-cyclopentyl-2-((2-methoxy-4-(4-(4-methylpiperazin-1-yl)piperidine-1-carbonyl)phenyl)amino)-5-methyl-5H-benzo[e]pyrimido[5,4-b][1,4]diazepin-6(11H)-one] | 98 | 96 % Ctrl
